Measured values: ChEMBL document CHEMBL5360532, “Current scenario of quinolone hybrids with potential antibacterial activity against ESKAPE pathogens” (Eur J Med Chem, 2023)
≈ marks a conversion by molar mass, not a printed value.

How the values were obtained:
[1] = tested on: Staphylococcus aureus; test: Antibacterial activity against Staphylococcus aureus assessed as bacterial growth inhibition measured after 24 hrs by agar cup diffusion assay; type: functional
[2] = tested on: Escherichia coli; test: Antibacterial activity against Escherichia coli assessed as bacterial growth inhibition measured after 24 hrs by agar cup diffusion assay; type: functional
[3] = tested on: Pseudomonas aeruginosa; test: Antibacterial activity against Pseudomonas aeruginosa assessed as bacterial growth inhibition measured after 24 hrs by agar cup diffusion assay; type: functional
[4] = tested on: Staphylococcus aureus; test: Potency index, ratio of ciprofloxacin MIC to test compound MIC for antimicrobial activity against Staphylococcus aureus assessed as bacterial growth inhibition measured after 24 hrs by agar cup diffusion assay; type: functional
[5] = tested on: Escherichia coli; test: Antibacterial activity Escherichia coli assessed as bacterial growth inhibition measured after 24 hrs by broth microdilution assay; type: functional
[6] = tested on: Pseudomonas aeruginosa; test: Antibacterial activity Pseudomonas aeruginosa assessed as bacterial growth inhibition measured after 24 hrs by broth microdilution assay; type: functional
[7] = tested on: Staphylococcus aureus; test: Antibacterial activity Staphylococcus aureus assessed as bacterial growth inhibition measured after 24 hrs by broth microdilution assay; type: functional
[8] = tested on: Enterococcus faecalis; test: Antibacterial activity Enterococcus faecalis assessed as bacterial growth inhibition measured after 24 hrs by broth microdilution assay; type: functional
[9] = tested on: Staphylococcus aureus; test: Antibacterial activity against clinical isolate methicillin sensitive Staphylococcus aureus ATCC 29213 assessed as bacterial growth inhibition measured after 18 to 20 hrs by broth microdilution assay; type: functional; conditions: time 18-20 hrs
[10] = tested on: Staphylococcus aureus; test: Antibacterial activity against methicillin sensitive Staphylococcus aureus clinical isolate 15 assessed as bacterial growth inhibition measured after 18 to 20 hrs by broth microdilution assay; type: functional; conditions: time 18-20 hrs
[11] = tested on: Staphylococcus aureus; test: Antibacterial activity against methicillin sensitive Staphylococcus aureus clinical isolate 18-3 assessed as bacterial growth inhibition measured after 18 to 20 hrs by broth microdilution assay; type: functional; conditions: time 18-20 hrs
[12] = tested on: Staphylococcus aureus; test: Antibacterial activity against clinical isolate methicillin sensitive Staphylococcus aureus BAA 976 assessed as bacterial growth inhibition measured after 18 to 20 hrs by broth microdilution assay; type: functional; conditions: time 18-20 hrs
[13] = tested on: Staphylococcus aureus; test: Antibacterial activity against clinical isolate methicillin sensitive Staphylococcus aureus BAA 1708 assessed as bacterial growth inhibition measured after 18 to 20 hrs by broth microdilution assay; type: functional; conditions: time 18-20 hrs
[14] = tested on: Staphylococcus aureus; test: Antibacterial activity against clinical isolate methicillin resistant Staphylococcus aureus ATCC 33591 assessed as bacterial growth inhibition measured after 18 to 20 hrs by broth microdilution assay; type: functional; conditions: time 18-20 hrs
[15] = tested on: Staphylococcus aureus; test: Antibacterial activity against clinical isolate methicillin resistant Staphylococcus aureus ATCC 43300 assessed as bacterial growth inhibition measured after 18 to 20 hrs by broth microdilution assay; type: functional; conditions: time 18-20 hrs
[16] = tested on: Staphylococcus aureus; test: Antibacterial activity against methicillin resistant Staphylococcus aureus clinical isolate 18-2 assessed as bacterial growth inhibition measured after 18 to 20 hrs by broth microdilution assay; type: functional; conditions: time 18-20 hrs
[17] = tested on: Staphylococcus aureus; test: Antibacterial activity against clinical isolate vancomycin intermediate resistant Staphylococcus aureus ATCC 700699 assessed as bacterial growth inhibition measured after 18 to 20 hrs by broth microdilution assay; type: functional; conditions: time 18-20 hrs
[18] = tested on: Staphylococcus aureus; test: Antibacterial activity against clinical isolate vancomycin intermediate resistant Staphylococcus aureus HIP 5836 assessed as bacterial growth inhibition measured after 18 to 20 hrs by broth microdilution assay; type: functional; conditions: time 18-20 hrs
[19] = tested on: Staphylococcus aureus; test: Antibacterial activity against clinical isolate vancomycin intermediate resistant Staphylococcus aureus HIP 5827 assessed as bacterial growth inhibition measured after 18 to 20 hrs by broth microdilution assay; type: functional; conditions: time 18-20 hrs
[20] = Microsomal stability in mouse liver microsomes assessed as half life measured upto 60 mins in presence of NADPH by HPLC analysis; type: ADME, Microsome
[21] = Microsomal stability in mouse plasma assessed as half life measured upto 60 mins in presence of NADPH by HPLC analysis; type: ADME, cell-free
[22] = tested on: Escherichia coli; test: Antibacterial activity against Escherichia coli UTI 189 assessed as bacterial growth inhibition measured after 20 hrs by microdilution assay; type: functional
[23] = tested on: Escherichia coli; test: Antibacterial activity against Escherichia coli CFT 073 assessed as bacterial growth inhibition measured after 20 hrs by microdilution assay; type: functional
[24] = tested on: Pseudomonas aeruginosa; test: Antibacterial activity against imipenem resistant Pseudomonas aeruginosa VIM-2 assessed as bacterial growth inhibition measured after 24 hrs by agar dilution assay; type: functional
[25] = tested on: Enterobacter cloacae; test: Antibacterial activity against fosfomycin resistant Enterobacter cloacae assessed as bacterial growth inhibition measured after 24 hrs by agar dilution assay; type: functional
[26] = tested on: Escherichia coli; test: Antibacterial activity against ESBL-producing Escherichia coli assessed as bacterial growth inhibition measured after 24 hrs by agar dilution assay; type: functional
[27] = tested on: Enterococcus faecalis; test: Antibacterial activity against Enterococcus faecalis ATCC 29212 assessed as bacterial growth inhibition measured after 24 hrs by agar dilution assay; type: functional
[28] = tested on: Enterococcus faecalis; test: Antibacterial activity against vancomycin resistant Enterococcus faecalis assessed as bacterial growth inhibition measured after 24 hrs by agar dilution assay; type: functional
[29] = tested on: Serratia marcescens; test: Antibacterial activity against Serratia marcescens assessed as bacterial growth inhibition measured after 24 hrs by agar dilution assay; type: functional
[30] = tested on: Salmonella typhimurium; test: Antibacterial activity against Salmonella typhi assessed as bacterial growth inhibition measured after 24 hrs by agar dilution assay; type: functional, Salmonella enterica subsp. enterica serovar […]; conditions: Salmonella enterica
[31] = tested on: Citrobacter; test: Antibacterial activity against Citrobacter assessed as bacterial growth inhibition measured after 24 hrs by agar dilution assay; type: functional
[32] = tested on: Escherichia coli; test: Antibacterial activity Escherichia coli ATCC 25922 assessed as bacterial growth inhibition by broth microdilution assay; type: functional
[33] = tested on: Staphylococcus aureus; test: Antibacterial activity Staphylococcus aureus ATCC 25923 assessed as bacterial growth inhibition by broth microdilution assay; type: functional

**Q.** Which results are given for `O=C(/C=C/c1cccc(Cl)c1)c1ccc(NC(=O)N2CCN(c3cc4c(cc3F)c(=O)c(C(=O)O)cn4C3CC3)CC2)cc1`?
**A.** MIC [1]: 0.06 µg/mL (≈ 0.0976 µM); MIC [2]: 0.06 µg/mL (≈ 0.0976 µM); MIC [3]: 0.06 µg/mL (≈ 0.0976 µM); Ratio [4]: 54

**Q.** Which MIC [5] does the source give for `C[C@H](NC(=O)c1cc(=O)[nH]c2ccccc12)C(=O)O` here?
**A.** 620 µg/mL (≈ 2380 µM)

**Q.** And the MIC [6]?
**A.** 620 µg/mL (≈ 2380 µM)

**Q.** What about the MIC [7] of the same compound?
**A.** 620 µg/mL (≈ 2380 µM)

**Q.** And the MIC [8]?
**A.** 620 µg/mL (≈ 2380 µM)

**Q.** Which MIC [9] does the source give for `CCCCCc1nc2ccccc2c(=O)n1NC(=O)c1c(O)c2ccccc2n(CC)c1=O` here?
**A.** 4 µg/mL (≈ 8.96 µM)

**Q.** What about the MIC [10] of the same compound?
**A.** 4 µg/mL (≈ 8.96 µM)

**Q.** And the MIC [11]?
**A.** 4 µg/mL (≈ 8.96 µM)

**Q.** And the MIC [12]?
**A.** 4 µg/mL (≈ 8.96 µM)

**Q.** What about the MIC [13] of the same compound?
**A.** 4 µg/mL (≈ 8.96 µM)

**Q.** What about the MIC [14] of the same compound?
**A.** 4 µg/mL (≈ 8.96 µM)

**Q.** What about the MIC [15] of the same compound?
**A.** 4 µg/mL (≈ 8.96 µM)

**Q.** What about the MIC [16] of the same compound?
**A.** 4 µg/mL (≈ 8.96 µM)

**Q.** What about the MIC [17] of the same compound?
**A.** 4 µg/mL (≈ 8.96 µM)

**Q.** And the MIC [18]?
**A.** 4 µg/mL (≈ 8.96 µM)

**Q.** And the MIC [19]?
**A.** 4 µg/mL (≈ 8.96 µM)

**Q.** What about the half-life [20] of the same compound?
**A.** > 373 min

**Q.** What about the half-life [21] of the same compound?
**A.** 24.5 min

**Q.** Which MIC [22] does the source give for `O=C(NCCCCCC(=O)N1CCN(c2cc3c(cc2F)c(=O)c(C(=O)O)cn3C2CC2)CC1)c1cc(O)c(O)c(C(=O)N[C@H]2COC(=O)[C@@H](NC(=O)c3cccc(O)c3O)COC(=O)[C@@H](NC(=O)c3cccc(O)c3O)COC2=O)c1` here?
**A.** 0.1 µg/mL (≈ 0.0877 µM)

**Q.** What about the MIC [23] of the same compound?
**A.** 0.1 µg/mL (≈ 0.0877 µM)

**Q.** Which MIC [24] does the source give for `CCOP(=O)(OCC)C(Nc1ncc(-c2cc3ccccc3oc2=O)s1)c1cc2cccc(C)c2[nH]c1=O` (stereo not drawn) here?
**A.** 0.25 µg/mL (≈ 0.453 µM)

**Q.** And the MIC [25]?
**A.** 0.25 µg/mL (≈ 0.453 µM)

**Q.** And the MIC [26]?
**A.** 0.25 µg/mL (≈ 0.453 µM)

**Q.** What about the MIC [27] of the same compound?
**A.** 0.25 µg/mL (≈ 0.453 µM)

**Q.** And the MIC [28]?
**A.** 0.25 µg/mL (≈ 0.453 µM)

**Q.** What about the MIC [29] of the same compound?
**A.** 0.25 µg/mL (≈ 0.453 µM)

**Q.** And the MIC [30]?
**A.** 0.25 µg/mL (≈ 0.453 µM)

**Q.** And the MIC [31]?
**A.** 0.25 µg/mL (≈ 0.453 µM)

**Q.** What does the source list for `C[C@@H](NC(=O)C(Cl)Cl)C(=O)N1CCN(c2cc3c(cc2F)c(=O)c(C(=O)O)cn3C2CC2)CC1`?
**A.** MIC [32]: 0.082 µg/mL (≈ 0.16 µM); MIC [33]: 0.167 µg/mL (≈ 0.325 µM)
